One assay concerns thoracic aorta. Nature of the assay: Vasorelaxant effect on isolated vessels (rat thoracic aorta rings without endothelium, precontracted with noradrenalin). More on the design: species or system Wistar rats. The note with it: for Emax: Rattus norvegicus, maximum inhibition of noradrenalin effect, 10^-8 to 10^-4 M substance, read-out: Maximum Relaxation; for IC50: rat aorta, 10^-7 M noradrenalin contraction. On the procedure: Vasorelaxant effect of the compounds according to the invention on isolated vessels.
Adult Wistar rats weighing between 250 and 350 g are anaesthetised by intraperitoneal injection of sodium pentobarbital (30 mg/kg). The thoracic aorta is rapidly removed and placed in a refrigerated and oxygenated solution of bicarbonate buffer of the Krebs-Ringer type (composition [mM]: NaCl, 118; KCl, 4.7; CaCl2, 2.5; MgSO4, 1.2; KH2 PO4, 1.2; NaHCO3, 25.0; disodium calcium salt of EDTA, 0.026; glucose 11.1). The aorta is dissected with the aim of removing the connective tissue and then cut into 6 rings (length 5-10 mm). The endothelium is removed by moderate abrasion of the intimal surface of the aortic segments with the aid of a pair of tweezers. These segments are then placed between two hooks in an isolated organ cell filled with 25 ml of bicarbonate buffer (pH 7.4), thermostat-controlled at 37° C. and oxygenated with the aid of a 95% O2 /5% CO2 mixture (pH 7.4). One of the hooks is fixed to a fixed point, while the second is connected to a transducer with the aim of measuring the variations in isometric voltage (expressed in grams). After an equilibration period of 30 min., the segments are progressively withdrawn so as to attain the level of base voltage for which the contractor response to noradrenalin (10^-7 M) is maximum (optimum voltage; average 2 g). The absence of endothelium is verified by addition of a single concentration of acetylcholine (10^-6 M), after precontraction of the vessels by noradrenalin (10^-7 M). The integrity of the vascular smooth muscle is also verified by adding a single concentration of a vasodilator whose response is independent of the presence of the endothelium, SIN-1 (10^-5 M). After this initial procedure, the aortas are washed, equilibrated for a period of 30 min and then recontracted (10^-7 M noradrenalin). The relaxant effect of the substance to be tested is then evaluated by adding increasing concentrations of this substance (from 10^-8 to 10^-4 M). The maximum inhibition of the concentration caused by noradrenalin (expressed as a percentage) is then calculated ("maximum relaxation"). When this maximum relaxation is greater than 50%, the concentration of substance tested producing a 50% inhibition of the maximum contraction (IC50) is calculated. Table V below collates the IC50 and the maximum relaxation percentages for the various compounds tested.

The test system of the next assay is anesthetised dogs. Nature of the assay: Haemodynamic effects on anesthetised dogs. The note with it: dogs. Format: in vivo, dogs (labrador/harrier cross). The method, then: Haemodynamic effects of the compounds according to the invention on anesthetised pigs or dogs
The dogs, weighing between 16 and 26 kg, are the progeny of a labrador/harrier cross.
In the case of dogs the anesthesia is induced by sodium pentobarbitol (45 mg/jg i.v.) and maintained with an i.v. perfusion (flow rate of 8 mg/kg/h).
The pigs or dogs are placed under artificial respiration in ambient air. Analysis of the blood gases (pO2, pCO2) is carried out at regular intervals and oxygen can be supplied via the respirator, if necessary.
The haemodynamic parameters recorded include the left ventricular pressure (LVP; Millar PC350 Tip catheter inserted via the carotid artery), systemic blood pressure (BPs, BPd; full catheter in a femoral artery), the end pressure of the left ventricular diastole (LVEDP), the ventricular contractility (LVPdp/dtmax) and the heart rate (HR).
Following an equilibration period of the order of 45 minutes, the compounds studied are administered intraduodenally (i.d.) or intraveinously (i.v.) to several animals (1 to 4). The haemodynamic variables are recorded continuously for 1 to 3 hours, as a function of the period of action of the compound.
The effects of the compounds studied are shown as the absolute difference with respect to the base value (bv) measured before administration of the compounds and are shown in Table VII (a,b,c).
An antianginal activity is estimated by a fall in the BPs and the LVEDP (fall in venous return).

These results are taken from patent US5591758A, “Organic nitrates, processes for their preparation and their use in the treatment of cardiovascular diseases” (Laboratoires Hoechst, SA, priority 1991, dated 1997).

Molecules are shown by their SMILES. Counter-ions that a name gives are not always drawn.

As for `O=C(N[C@H]1CO[C@H]2[C@@H]1OC[C@H]2O[N+](=O)[O-])[C@@H]1CSCN1` [Compound 40, 2-[[(4-L-Thiazolidinyl)carbonyl]amino]-2-deoxy-5-O-nitro-1,4:3,6-dianhydro-D-glucitol monohydrochloride], in the assay on thoracic aorta, the Emax is 38% and the half-inhibitory concentration (IC50) (in general, the point on the concentration scale where inhibition reaches its midpoint) is more than 100 µM. In addition, in the assay with anesthetised dogs (3 mg/kg i.v.), the “BPs (min), period of action” value is on record as more than 90 min; the “BPs, difference to base value” was -10 mmHg; the “LVEDP (min), period of action” value is more than 90 min; the “LVEDP, difference to base value” is -1,0 mmHg.

`O=C(N[C@H]1CO[C@H]2[C@@H]1OC[C@H]2O[N+](=O)[O-])c1ccccc1SCc1ccccc1` [Compound 45]: in the assay on anesthetised dogs (3 mg/kg i.v.), the “BPs (min), period of action” value was more than 120 min; the “BPs, difference to base value” is given as -10 mmHg; the “LVEDP (min), period of action” value was found to be 0 min; the “LVEDP, difference to base value” is recorded as 0,0 mmHg.

As for `CC(C)[C@H](NC(=O)[C@@H]1CSCN1)C(=O)N[C@H]1CO[C@H]2[C@@H]1OC[C@@H]2O[N+](=O)[O-]` [Compound 64, 5-[[2-[[(4-L-thiazolidinyl)carbonyl]amino]-1-((2S)-2-isopropyl)-oxoethyl]amino]-5-deoxy-2-O-nitro-1,4:3,6-dianhydro-L-iditol monohydrochloride], in the assay on thoracic aorta, the Emax is 84% and the IC50 worked out at 51 µM. Moreover, in the assay with anesthetised dogs (3 mg/kg i.d.), the “BPs (min), period of action” value is more than 180 min; the “BPs, difference to base value” is -25 mmHg; the “LVEDP (min), period of action” value is reported as 150 min; the “LVEDP, difference to base value” is -2,0 mmHg.

As to `C[C@H](NC(=O)[C@@H]1CSCN1)C(=O)N[C@H]1CO[C@H]2[C@@H]1OC[C@@H]2O[N+](=O)[O-]` [Compound 62, 5-[[2-[[(4-L-thiazolidinyl)carbonyl]amino]-1-((2S)-2-methyl)-oxoethyl]amino]-5-deoxy-2-O-nitro-1,4:3,6-dianhydro-L-iditol monohydrochloride], in the assay on thoracic aorta, the Emax worked out at 72% and the IC50 is 55 µM. Besides, in the assay on anesthetised dogs (3 mg/kg i.d.), the “BPs (min), period of action” value is more than 30 min and the “BPs, difference to base value” was -35 mmHg.

On to `CC(C)(C)OC(=O)NCC(=O)N[C@H]1CO[C@H]2[C@@H]1OC[C@H]2O[N+](=O)[O-]` [Compound 15, N-[(t-Butoxy)carbonyl]glycine amide of 2-amino-2-deoxy-5-O-nitro-1,4:3,6-dianhydro-D-glucitol], for which, in the assay on thoracic aorta, the Emax is 58% and the IC50 is 60 µM. For the same molecule, in the assay with anesthetised dogs (3 mg/kg i.d.), the “BPs (min), period of action” value is on record as more than 180 min; the “BPs, difference to base value” is -20 mmHg; the “LVEDP (min), period of action” value is more than 180 min; the “LVEDP, difference to base value” is given as -3,0 mmHg.

Take `NCC(=O)N[C@H]1CO[C@H]2[C@@H]1OC[C@H]2O[N+](=O)[O-]` [Compound 16, Glycine amide of 2-amino-2-deoxy-5-O-nitro-1,4:3,6-dianhydro-D-glucitol monohydrochloride]: in the assay on thoracic aorta, the Emax amounted to 41% and the IC50 was more than 100 µM. Besides, in the assay on anesthetised dogs (10 mg/kg i.v.), the “BPs (min), period of action” value is more than 30 min; the “BPs, difference to base value” was -5 mmHg; the “LVEDP (min), period of action” value is more than 30 min; the “LVEDP, difference to base value” was -1,0 mmHg.

Turning to `N[C@@H](Cc1ccccc1)C(=O)N[C@H]1CO[C@H]2[C@@H]1OC[C@@H]2O[N+](=O)[O-]` [Compound 12, L-phenylalanine amide of 5-amino-5-deoxy-2-O-nitro-1,4:3,6-dianhydro-L-iditol monohydrochloride], in the assay with thoracic aorta, the Emax stood at 100% and the concentration for half-maximal inhibition (IC50) was 2.5 µM. Further, in the assay with anesthetised dogs (3 mg/kg i.d.), the “BPs (min), period of action” value is more than 240 min and the “BPs, difference to base value” was -30 mmHg.

In the case of `O=C(O[C@H]1CO[C@H]2[C@@H]1OC[C@H]2O[N+](=O)[O-])[C@@H]1CSCN1` [Compound 19, 2-O-[(4-L-Thiazolidinyl)carbonyl]-5-O-nitro-1,4:3,6-dianhydro-D-glucitol monohydrochloride], in the assay with thoracic aorta, the Emax came to 40% and the IC50 was more than 100 µM. In addition, in the assay with anesthetised dogs (10 mg/kg i.v.), the “BPs (min), period of action” value is on record as more than 60 min; the “BPs, difference to base value” was -35 mmHg; the “LVEDP (min), period of action” value is on record as 0 min; the “LVEDP, difference to base value” is recorded as 0,0 mmHg.

As for `CC(C)(C)OC(=O)N1CSC[C@H]1C(=O)O[C@H]1CO[C@H]2[C@@H]1OC[C@H]2O[N+](=O)[O-]` [Compound 18, 2-O-[(3-t-Butoxycarbonyl-4-L-thiazolidinyl)carbonyl]-5-O-nitro-1,4:3,6-dianhydro-D-glucitol], in the assay with thoracic aorta, the Emax came to 75% and inhibition was half-maximal at 72 µM (IC50). Moreover, in the assay on anesthetised dogs (10 mg/kg i.v.), the “BPs (min), period of action” value is more than 30 min; the “BPs, difference to base value” is -10 mmHg; the “LVEDP (min), period of action” value was more than 30 min; the “LVEDP, difference to base value” is on record as 3,0 mmHg.

For the molecule `CC(=O)NCSC[C@H](N)C(=O)O[C@H]1CO[C@H]2[C@@H]1OC[C@H]2O[N+](=O)[O-]` [Compound 21, S-[(Acetylamino)methyl]-L-cysteine ester of 5-O-nitro-1,4:3,6-dianhydro-D-glucitol monohydrochloride], in the assay on thoracic aorta, the Emax is 31% and it took 100 µM to reach half-maximal inhibition (IC50). Moreover, in the assay on anesthetised dogs (3 mg/kg i.d.), the “BPs (min), period of action” value is reported as more than 60 min; the “BPs, difference to base value” was -5 mmHg; the “LVEDP (min), period of action” value is more than 60 min; the “LVEDP, difference to base value” is given as -2,0 mmHg.

For the molecule `O=C(N[C@H]1CO[C@H]2[C@@H]1OC[C@@H]2O[N+](=O)[O-])[C@@H]1CCCN1` [Compound 14, L-Proline amide of 5-amino-5-deoxy-2-O-nitro-1,4:3,6-dianhydro-L-iditol monohydrochloride], in the assay with thoracic aorta, the Emax turned out to be 98% and the IC50 was determined as 14 µM. In the assay on anesthetised dogs (3 mg/kg i.v.), the “BPs (min), period of action” value was more than 90 min; the “BPs, difference to base value” is -10 mmHg; the “LVEDP (min), period of action” value is recorded as more than 90 min; the “LVEDP, difference to base value” is listed as -2,0 mmHg.

For `CSCC[C@H](NC(=O)OC(C)(C)C)C(=O)N[C@H]1CO[C@H]2[C@@H]1OC[C@@H]2O[N+](=O)[O-]` [Compound 37, N-[(t-Butoxy)carbonyl]-L-methionine amide of 5-amino-5-deoxy-2-O-nitro-1,4:3,6-dianhydro-L-iditol], in the assay on thoracic aorta, the Emax was 100% and the IC50 was 13 µM. For the same molecule, in the assay with anesthetised dogs (10 mg/kg i.v.), the “BPs (min), period of action” value is given as more than 90 min; the “BPs, difference to base value” is on record as -25 mmHg; the “LVEDP (min), period of action” value was found to be 30 min; the “LVEDP, difference to base value” was -2,0 mmHg.

As for `O=C(O[C@@H]1CO[C@H]2[C@@H]1OC[C@@H]2O[N+](=O)[O-])[C@@H]1CSCN1` [Compound 25, 5-O-[(4-L-Thiazolidinyl)carbonyl]-2-O-nitro-1,4:3,6-dianhydro-D-glucitol monohydrochloride], in the assay with thoracic aorta, the Emax came to 35% and the IC50 is more than 100 µM. In the assay with anesthetised dogs (10 mg/kg i.d.), the “BPs (min), period of action” value is reported as more than 60 min; the “BPs, difference to base value” is reported as -30 mmHg; the “LVEDP (min), period of action” value is reported as more than 60 min; the “LVEDP, difference to base value” is recorded as -3,0 mmHg.
